In PMC10291553, “Exploring Structure–Activity Relationships in Photodynamic Therapy Anticancer Agents Based on Ir(III)-COUPY Conjugates” (Journal of Medicinal Chemistry, 2023):
Read-outs that look alike come from different tables or passages of the source.

Tests used:
HeLa = assay: Photo- and cytotoxic activity determination (MTT), HeLa cells; type: cell-based; conditions: normoxia; for HeLa PI (phototherapeutic index), IC50 dark/IC50 irradiated: 520 nm, dark tested up to 100 μM; for IC50: 48 h drug-free medium
From the text: (§1) Having shown that the Ir(III)-COUPY conjugates can sensitize both type I and II ROS through spectroscopic techniques and readily internalize into living cells, their photocytotoxicity was screened in various cancer cell lines. This screening included two representative melanoma cell lines (human A375 and […] human SK-MEL-28) and cancer cells with resistance to the clinical drug cisplatin. For the latter, both sensitive and cisplatin-resistant ovarian cancer cells (A2780 and A2780cis) as well as HeLa cells, which also show a degree of chemoresistance to the platinum anticancer drug in vitro,[54] were used. For the determination of dark and light cytotoxicity, dose–response curves were assayed from both conditions to provide the correspondent IC50 values, which correspond to the concentration needed for inhibition of cell growth by 50%. Phototherapeutic index (PI) was calculated as the ratio of dark to light IC50 value for each compound.
(§2) A375, HeLa, and SK-MEL-28 cells were cultured in Dulbecco’s modified Eagle medium (DMEM) supplemented with 10% FBS, L-glutamine, and 1% penicillin–streptomycin. A2780 and A2780cis cells were grown in RPMI-1640 cell medium supplemented with 10% fetal bovine serum (FBS) and 2 mM L-glutamine. Acquired resistance to cisplatin in the A2780cis cell line was maintained by adding cisplatin 1 μM to culture medium every second passage. Cells were cultured in a humidified incubator at 310 K with 5% CO2 atmosphere and subcultured two or three times a week with appropriate densities and were confirmed to be mycoplasma-free using a standard Hoechst DNA staining method.
(§3) A2780, A2780cis, HeLa, A375, and SK-MEL-28 cells were maintained at logarithmic growth-phase and cultured in 96-well plates at a density of 5000 cells/well in complete medium for 24 h at 310 K, 5% CO2 in a humidified incubator. For hypoxia experiments, a hypoxia condition was set up by Tissue Culture Service at University of Murcia using nitrogen (N2) to displace O2 down to a minimum of 2% in a Forma Steri-Cycle i160 incubator (Thermo Fisher Scientific). Serial dilutions of the compounds were added at the final concentrations in the range of 0–100 μM in a final volume of 100 μL per well. A light-based treatment schedule was performed as follows: 1 h incubation with the compounds in the dark, followed by 1 h incubation under irradiation conditions by placing the Photoreactor EXPO-LED from Luzchem (Canada) fitted with green lamps (final light intensity applied of 1.5 mW/cm^2 at λmax = 520 nm) inside the CO2 incubator. All the cell culture plates subjected to light irradiation included untreated controls to verify that cell viability was not affected by light. Then, treatment-containing media was removed, and fresh media was added for a 48 h cell recovery period; the temperature throughout the experiment remained at 310 K. Dark control samples were placed in the same dark conditions and then kept incubated for 1 h in the dark in the humidified CO2 incubator. Medium was then aspirated by suction, cells were loaded with 50 μL of MTT solution (1 mg/mL) for additional 4 h and then removed, and 50 μL of DMSO was added to solubilize the purple formazan crystals formed in active cells. The absorbance was measured at 570 nm using a microplate reader (FLUOstar Omega), and the IC50 values were calculated based on the inhibitory rate curves using the following equation [drawing 4] 4 where I represents the percentage inhibition of viability observed, Imax is the maximal inhibitory effect, IC50 is the concentration that inhibits 50% of maximal growth, C is the concentration of the treatment, and n is the slope of the semi-logarithmic dose–response sigmoidal curves. The non-linear fitting was performed using SigmaPlot 14.0 software. All experiments were performed in three independent studies with n = 3 replicates per concentration level. For a detailed phototoxicity procedure, ref ([43]) includes technical explanations.

A375 = assay: Photo- and cytotoxic activity determination (MTT), A375 cells; type: cell-based, human; conditions: normoxia; for A375 PI (phototherapeutic index), IC50 dark/IC50 irradiated: 520 nm, dark tested up to 100 μM; for IC50: 48 h drug-free medium
From the text: as §1, §2, §3

A2780 = assay: Photo- and cytotoxic activity determination (MTT), A2780 cells; type: cell-based; conditions: normoxia; for A2780 PI (phototherapeutic index), IC50 dark/IC50 irradiated: 520 nm, dark tested up to 100 μM; for IC50: 48 h drug-free medium
From the text: as §1, §2, §3

A2780cis cells = assay: Photo- and cytotoxic activity determination (MTT), A2780cis cells, normoxia or hypoxia; type: cell-based; conditions: for Hypoxia PI (phototherapeutic index) / Normoxia PI (phototherapeutic index): dark tested up to 250 μM; for A2780cis PI (phototherapeutic index), IC50 dark/IC50 irradiated: dark tested up to 100 μM
How it was run: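 Green-light photocytotoxicity: 1 h dark preincubation with compound, 1 h light (520 nm, 1.5 mW/cm^2), 48 h recovery, MTT at 570 nm; dark controls run in parallel. IC50 fitted to inhibition curves.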

[1] = A2780cis, hypoxia 2% O2, 520 nm
[2] = A2780cis, hypoxia 2% O2, dark, tested up to 250 μM, read-out: Hypoxia Dark IC50
[3] = A2780cis, normoxia 21% O2, 520 nm
[4] = A2780cis, normoxia 21% O2, dark, tested up to 250 μM, read-out: Normoxia Dark IC50

Compound: CCCCn1c2[n+](c3cc(C(=O)NCCCNC(=O)C[n+]4ccc(/C(C#N)=C5/C=C(C)c6ccccc6O5)cc4)ccc31)[Ir-3]13([c]4ccccc4-c4[nH]c5ccccc5[n+]41)([c]1ccccc1-c1[nH]c4ccccc4[n+]13)[n+]1c-2ccc2ccccc21 [3b]
- HeLa PI (phototherapeutic index), IC50 dark/IC50 irradiated (HeLa): > 6
- IC50 (HeLa; 1 h incubation + 1 h green light 520 nm, 1.5 mW cm^–2, read-out: HeLa light IC50): 18 ± 2 µM
- IC50 (HeLa; kept in the dark, 2 h treatment, read-out: HeLa dark IC50): > 100 µM
- A375 PI (phototherapeutic index), IC50 dark/IC50 irradiated (A375): > 1.3
- IC50 (A375; 1 h incubation + 1 h green light 520 nm, 1.5 mW cm^–2, read-out: A375 light IC50): 78 ± 6 µM
- IC50 (A375; kept in the dark, 2 h treatment, read-out: A375 dark IC50): > 100 µM
- A2780 PI (phototherapeutic index), IC50 dark/IC50 irradiated (A2780): > 14
- IC50 (A2780; 1 h incubation + 1 h green light 520 nm, 1.5 mW cm^–2, read-out: A2780 light IC50): 7.1 ± 0.1 µM
- IC50 (A2780; kept in the dark, 2 h treatment, read-out: A2780 dark IC50): > 100 µM
- Partial inhibition (% of cell growth inhibition with respect to untreated controls), Hypoxia (A2780cis cells; 250 μM, A2780cis, 2 h incubation in the dark, 48 h drug-free recovery, hypoxia): 45 ± 6%
- Partial inhibition (% of cell growth inhibition with respect to untreated controls), Normoxia (A2780cis cells; 250 μM, A2780cis, 2 h incubation in the dark, 48 h drug-free recovery, normoxia): 63 ± 5%
- PI (phototherapeutic index), blue light (A2780cis cells; A2780cis, 465 nm): > 41.7
- IC50 (A2780cis cells; A2780cis, 1 h incubation + 1 h blue light 465 nm, 5 mW/cm2, 48 h drug-free, read-out: 465 nm IC50): 2.4 µM
- Hypoxia PI (phototherapeutic index) (A2780cis cells; [1]): > 8.1
- IC50 (A2780cis cells; A2780cis, hypoxia 2% O2, 1 h incubation + 1 h green light 520 nm, 48 h drug-free, read-out: Hypoxia 520 nm IC50): 31 µM
- IC50 (A2780cis cells; [2]): > 250 µM
- Normoxia PI (phototherapeutic index) (A2780cis cells; [3]): > 4.1
- IC50 (A2780cis cells; [4]): > 250 µM
- IC50 (A2780cis cells; hypoxia, dark, read-out: A2780cis Dark IC50 (microM) Hypoxia): > 250 µM
- A2780cis PI (phototherapeutic index), IC50 dark/IC50 irradiated (A2780cis cells; normoxia, 520 nm): > 1.6
- IC50 (A2780cis cells; normoxia, 1 h incubation + 1 h green light 520 nm, 1.5 mW cm^–2, 48 h drug-free medium, read-out: A2780cis light IC50): 61 ± 8 µM
- IC50 (A2780cis cells; normoxia, dark, up to 250 microM, read-out: A2780cis Dark IC50 (microM) Normoxia): > 250 µM
- IC50 (A2780cis cells; normoxia, kept in the dark, tested up to 100 μM, 2 h treatment, 48 h drug-free medium, read-out: A2780cis dark IC50): > 100 µM

Compound: CCN(CC)c1ccc2c(c1)O/C(=C(/C#N)c1cc[n+](C)cc1)C=C2C [1a]
- IC50 (HeLa; Homo sapiens, HeLa, 1 h incubation + 1 h green light 520 nm, 1.5 mW cm^–2, read-out: HeLa light IC50): 5.8 ± 0.4 µM
- IC50 (HeLa; Homo sapiens, HeLa, kept in the dark, 2 h treatment, read-out: HeLa dark IC50): > 100 µM
- HeLa PI (phototherapeutic index), IC50 dark/IC50 irradiated (HeLa): > 17
- IC50 (A375; Homo sapiens, A-375, 1 h incubation + 1 h green light 520 nm, 1.5 mW cm^–2, read-out: A375 light IC50): 1.1 ± 0.1 µM
- IC50 (A375; Homo sapiens, A-375, kept in the dark, 2 h treatment, read-out: A375 dark IC50): > 100 µM
- A375 PI (phototherapeutic index), IC50 dark/IC50 irradiated (A375): > 89
- IC50 (A2780; Homo sapiens, A2780, 1 h incubation + 1 h green light 520 nm, 1.5 mW cm^–2, read-out: A2780 light IC50): 5.2 ± 0.5 µM
- IC50 (A2780; Homo sapiens, A2780, kept in the dark, 2 h treatment, read-out: A2780 dark IC50): > 100 µM
- A2780 PI (phototherapeutic index), IC50 dark/IC50 irradiated (A2780): > 19
- inhibition at 250 µM (A2780cis cells; 250 μM, A2780cis, 2 h incubation in the dark, 48 h drug-free recovery, hypoxia, read-out: Partial inhibition (% of cell growth inhibition with respect to untreated controls), Hypoxia): 2.1 ± 0.4%
- inhibition at 250 µM (A2780cis cells; 250 μM, A2780cis, 2 h incubation in the dark, 48 h drug-free recovery, normoxia, read-out: Partial inhibition (% of cell growth inhibition with respect to untreated controls), Normoxia): 3.5 ± 0.9%
- Hypoxia PI (phototherapeutic index) (A2780cis cells; [1]): > 100.0
- IC50 (A2780cis cells; [2]): > 250 µM
- IC50 (A2780cis cells; A2780cis, hypoxia, 520 nm, read-out: A2780cis Light 520 nm IC50 (microM) Hypoxia): 2.5 ± 0.2 µM
- IC50 (A2780cis cells; A2780cis, hypoxia, dark, read-out: A2780cis Dark IC50 (microM) Hypoxia): > 250 µM
- Normoxia PI (phototherapeutic index) (A2780cis cells; [3]): > 119.1
- IC50 (A2780cis cells; [4]): > 250 µM
- IC50 (A2780cis cells; A2780cis, normoxia, 1 h incubation + 1 h green light 520 nm, 1.5 mW cm^–2, 48 h drug-free medium, read-out: A2780cis light IC50): 2.1 ± 0.2 µM
- IC50 (A2780cis cells; A2780cis, normoxia, dark, up to 250 microM, read-out: A2780cis Dark IC50 (microM) Normoxia): > 250 µM
- IC50 (A2780cis cells; A2780cis, normoxia, kept in the dark, tested up to 100 μM, 2 h treatment, 48 h drug-free medium, read-out: A2780cis dark IC50): > 100 µM
- A2780cis PI (phototherapeutic index), IC50 dark/IC50 irradiated (A2780cis cells; normoxia, 520 nm): > 48
